Assay results from US8574563B2 (Bristol-Myers Squibb Company, priority 2006, dated 2013).

Each compound was assayed on HCV 1b-377-neo replicon cells (assay: HCV replicon assay, HCV 1b-377-neo replicon cells (1b FRET)). Conditions: Hepatitis C virus, HCV 1b-377-neo replicon cells; HCV 1b genotype; read-out: EC50 range against HCV 1b (Table 2, Range).
Assay type: cell-based, Hepatitis C virus genotype 1b
In short: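 FRET-based replicon assay in HCV 1b-377-neo cells, including a comparison line carrying the NS5A Y2065H mutation that confers resistance to a reference compound.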

| Structure (SMILES) | EC50 [pM] |
| --- | --- |
| COC(=O)N[C@@H](C(=O)N1CCC[C@H]1c1ncc(-c2ccc(-c3ccc(-c4cnc([C@@H]5CCCN5C(=O)C(c5ccccc5Cl)N(C)C)[nH]4)cc3)cc2)[nH]1)c1ccccc1 (stereo partly drawn) [Example 84-56, methyl ((1R)-2-((2S)-2-(5-(4′-(2-((2S)-1-((2-chlorophenyl)(dimethylamino)acetyl)-2-pyrrolidinyl)-1H-imidazol-5-yl)-4-biphenylyl)-1H-imidazol-2-yl)-1-pyrrolidinyl)-2-oxo-1-phenylethyl)carbamate] | 1 to 999 |
| COC(=O)N[C@@H](C)C(=O)N1CCC[C@H]1c1ncc(-c2ccc(-c3ccc(-c4cnc([C@@H]5CCCN5C(=O)[C@H]5CCC[C@@H]5NC(=O)OC)[nH]4)cc3)cc2)[nH]1 [cj-118, methyl ((1S,2S)-2-(((2S)-2-(5-(4′-(2-((2S)-1-(N-(methoxycarbonyl)-L-alanyl)-2-pyrrolidinyl)-1H-imidazol-5-yl)-4-biphenylyl)-1H-imidazol-2-yl)-1-pyrrolidinyl)carbonyl)cyclopentyl)carbamate] | 1 to 999 |
| CC(C)[C@@H](O)C(=O)N1[C@@H](C)CC[C@H]1c1nc(-c2ccc(-c3ccc(-c4c[nH]c([C@@H]5CC[C@H](C)N5C(=O)[C@H](O)C(C)C)n4)cc3)cc2)c[nH]1 [Example M160, (2R,2′R)-1,1′-(4,4′-biphenyldiylbis(1H-imidazole-4,2-diyl((2S,5S)-5-methyl-2,1-pyrrolidinediyl)))bis(3-methyl-1-oxo-2-butanol)] | 1000 to 99000 |
| CN[C@@H](C(=O)N1CCC[C@H]1c1nc(-c2ccc(-c3ccc(-c4cnc([C@@H]5CCCN5C(=O)[C@H](NC)c5ccccc5)[nH]4)cc3)cc2)c[nH]1)c1ccccc1 [Example F15, (1R)-N-methyl-2-((2S)-2-(4-(4′-(2-((2S)-1-((2R)-2-(methylamino)-2-phenylacetyl)-2-pyrrolidinyl)-1H-imidazol-5-yl)-4-biphenylyl)-1H-imidazol-2-yl)-1-pyrrolidinyl)-2-oxo-1-phenylethanamine] | 1 to 999 |
| COC(=O)N[C@H](C(=O)N1C[C@H](O)C[C@H]1c1ncc(-c2ccc(-c3ccc(-c4cnc([C@@H]5C[C@@H](O)CN5C(=O)[C@@H](NC(=O)OC)C5CC5)[nH]4)cc3)cc2)[nH]1)C1CC1 [JG-6, dimethyl (4,4′-biphenyldiylbis(1H-imidazole-5,2-diyl((2S,4R)-4-hydroxy-2,1-pyrrolidinediyl)((1S)-1-cyclopropyl-2-oxo-2,1-ethanediyl)))biscarbamate] | 1000 to 99000 |
| COC(=O)N[C@@H](C(=O)N1CCC[C@H]1c1ncc(-c2ccc(-c3ccc(-c4cnc([C@@H]5CCCN5C(=O)c5cscn5)[nH]4)cc3)cc2)[nH]1)c1ccccc1 [Example 84-44, methyl ((1R)-2-oxo-1-phenyl-2-((2S)-2-(5-(4′-(2-((2S)-1-(1,3-thiazol-4-ylcarbonyl)-2-pyrrolidinyl)-1H-imidazol-5-yl)-4-biphenylyl)-1H-imidazol-2-yl)-1-pyrrolidinyl)ethyl)carbamate] | 1 to 999 |
| CCN(CC)[C@@H](C(=O)N1CCC[C@H]1c1ncc(-c2ccc(-c3ccc(-c4cnc([C@@H]5CCCN5C(=O)[C@@H]5COC(=O)N5)[nH]4)cc3)cc2)[nH]1)c1ccccc1 [Example M44, (4S)-4-(((2S)-2-(5-(4′-(2-((2S)-1-((2R)-2-(diethylamino)-2-phenylacetyl)-2-pyrrolidinyl)-1H-imidazol-5-yl)-4-biphenylyl)-1H-imidazol-2-yl)-1-pyrrolidinyl)carbonyl)-1,3-oxazolidin-2-one] | 100000 to 999000 |
| CCN(CC)[C@@H](C(=O)N1CCC[C@H]1c1ncc(-c2ccc(-c3ccc(-c4cnc([C@@H]5CCCN5C(=O)[C@@H](c5ccccc5)N(CC)CC)[nH]4)c(F)c3)cc2)[nH]1)c1ccccc1 [Example D47, (1R,1′R)-2,2′-((3-fluoro-4,4′-biphenyldiyl)bis(1H-imidazole-5,2-diyl(2S)-2,1-pyrrolidinediyl))bis (N,N-diethyl-2-oxo-1-phenylethanamine)] | 1 to 999 |
| CN(C)C(C(=O)N1CCC[C@H]1c1nc(-c2ccc(-c3ccc(-c4cnc([C@@H]5CC6CCCCC6N5C(=O)[C@@H](c5ccccc5)N(C)C)[nH]4)cc3)cc2)c[nH]1)c1ccccc1 (relative stereo) [Example F7, rel-(1R)-2-((2S)-2-(4-(4′-(2-((2S)-1-((2R)-2-(dimethylamino)-2-phenylacetyl)octahydro-1H-indol-2-yl)-1H-imidazol-5-yl)-4-biphenylyl)-1H-imidazol-2-yl)-1-pyrrolidinyl)-N,N-dimethyl-2-oxo-1-phenylethanamine] | 1 to 999 |
| CCN(C)[C@@H](C(=O)N1CCC[C@H]1c1ncc(-c2ccc(-c3ccc(-c4cnc([C@@H]5CCCN5C(=O)[C@@H](NC(=O)OC)C(C)C)[nH]4)cc3)cc2)[nH]1)c1ccccc1 [Example M78, methyl ((1S)-1-(((2S)-2-(5-(4′-(2-((2S)-1-((2R)-2-(ethyl(methyl)amino)-2-phenylacetyl)-2-pyrrolidinyl)-1H-imidazol-5-yl)-4-biphenylyl)-1H imidazol-2-yl)-1-pyrrolidinyl)carbonyl)-2-methylpropyl)carbamate] | 1000 to 99000 |
| CCN(CC)[C@H]1CC[C@@H](C(=O)N2CCC[C@H]2c2ncc(-c3ccc(-c4ccc(-c5cnc([C@@H]6CCCN6C(=O)[C@H]6CC[C@@H](N(CC)CC)CC6)[nH]5)cc4)cc3)[nH]2)CC1 [cj-152] | 1000 to 99000 |
| COC(=O)N[C@@H](C)C(=O)N1CCC[C@H]1c1ncc(-c2ccc(-c3ccc(-c4cnc([C@@H]5CCCN5C(=O)[C@H](C)NC(=O)OC)[nH]4)c(F)c3)cc2F)[nH]1 [Example D61, methyl ((1S)-2-((2S)-2-(5-(3,3,-difluoro-4′-(2-((2S)-1-(N-(methoxycarbonyl)-L-alanyl)-2-pyrrolidinyl)-1H-imidazol-5-yl)-4-biphenylyl)-1H-imidazol-2-yl)-1-pyrrolidinyl)-1-methyl-2-oxoethyl)carbamate] | 1 to 999 |
| COC(=O)N[C@@H](C(=O)N1CCC[C@H]1c1ncc(-c2ccc(-c3ccc(-c4cnc([C@@H]5CCCN5C(=O)[C@@](C)(O)c5ccccc5F)[nH]4)cc3)cc2)[nH]1)c1ccccc1 [Example 84-2, methyl ((1R)-2-((2S)-2-(5-(4′-(2-((2S)-1-((2S)-2-(2-fluorophenyl)-2-hydroxypropanoyl)-2-pyrrolidinyl)-1H-imidazol-5-yl)-4-biphenylyl)-1H-imidazol-2-yl)-1-pyrrolidinyl)-2-oxo-1-phenylethyl)carbamate] | 1 to 999 |
| C[C@H]1OC(=O)NC1C(=O)N1CCC[C@H]1c1ncc(-c2ccc(-c3ccc(-c4cnc([C@@H]5CCCN5C(=O)C5NC(=O)O[C@@H]5C)[nH]4)cc3)cc2)[nH]1 (stereo in doubt) [cj-133, (4S,5R,4′S,5′R)-4,4′-(4,4′-biphenyldiylbis(1H-imidazole-5,2-diyl(2S)-2,1-pyrrolidinediylcarbonyl))bis(5-methyl-1,3-oxazolidin-2-one)] | 1000 to 99000 |
| COC(=O)N[C@@H](Cc1cscn1)C(=O)N1CCC[C@H]1c1ncc(-c2ccc(-c3ccc(-c4cnc([C@@H]5CCCN5C(=O)[C@@H](NC(=O)OC)[C@@H](C)OC)[nH]4)cc3)cc2)[nH]1 [cj-78, methyl ((1S)-2-((2S)-2-(5-(4′-(2-((2S)-1-((2S,3R)-3-methoxy-2-((methoxycarbonyl)amino)butanoyl)-2-pyrrolidinyl)-1H-imidazol-5-yl)-4-biphenylyl)-1H-imidazol-2-yl)-1-pyrrolidinyl)-2-oxo-1-(1,3-thiazol-4-ylmethyl)ethyl)carbamate] | 1 to 999 |
| COC(=O)N[C@H]1CC[C@H](C(=O)N2CCC[C@H]2c2ncc(-c3ccc(-c4ccc(-c5cnc([C@@H]6CCCN6C(=O)[C@H]6CC[C@H](NC(=O)OC)CC6)[nH]5)cc4)cc3)[nH]2)CC1 [cj-151, dimethyl (4,4′-biphenyldiylbis(1H-imidazole-5,2-diyl(2S)-2,1-pyrrolidinediylcarbonyltrans-4,1-cyclohexanediyl))biscarbamate] | 1000 to 99000 |
| COC(=O)N[C@@H](C(=O)N1CCC[C@H]1c1ncc(-c2ccc(-c3ccc(-c4cnc([C@@H]5CCCN5C(=O)[C@@H]5CCC[C@H]5NC(=O)OC)[nH]4)cc3)cc2)[nH]1)c1ccccc1 [cj-110, methyl ((1R)-2-((2S)-2-(5-(4′-(2-((2S)-1-(((1R,2R)-2-((methoxycarbonyl)amino)cyclopentyl)carbonyl)-2-pyrrolidinyl)-1H-imidazol-5-yl)-4-biphenylyl)-1H-imidazol-2-yl)-1-pyrrolidinyl)-2-oxo-1-phenylethyl)carbamate] | 1 to 999 |
| O=C(N[C@@H](C(=O)N1CCC[C@H]1c1ncc(-c2ccc(-c3ccc(-c4cnc([C@@H]5CCCN5C(=O)[C@@H]5CCCO5)[nH]4)cc3)cc2)[nH]1)c1ccccc1)[C@H]1CCCO1 [Example 110, (2R)—N-((1R)-2-oxo-1-phenyl-2-((2S)-2-(5-(4′-(2-((2S)-1-((2S)-tetrahydro-2-furanylcarbonyl)-2-pyrrolidinyl)-1H-imidazol-5-yl)-4-biphenylyl)-1H-imidazol-2-yl)-1-pyrrolidinyl)ethyl)tetrahydro-2-furancarboxamide] | 1 to 999 |
| CN(C)[C@@H](C(=O)N1CCC[C@H]1c1ncc(-c2ccc(-c3ccc(-c4cnc([C@@H]5CCCN5C(=O)Cc5cccc(F)c5)[nH]4)cc3)cc2)[nH]1)c1ccccc1 [Example 94-52, (1R)-2-((2S)-2-(5-(4′-(2-((2S)-1-((3-fluorophenyl)acetyl)-2-pyrrolidinyl)-1H-imidazol-5-yl)-4-biphenylyl)-1H-imidazol-2-yl)-1-pyrrolidinyl)-N,N-dimethyl-2-oxo-1-phenylethanamine] | 1 to 999 |
| CCN(CC)[C@@H](C(=O)N1CCC[C@H]1c1ncc(-c2ccc(-c3ccc(-c4cnc([C@@H]5CCCN5C(=O)[C@H](Cc5cscn5)NC(=O)OC)[nH]4)cc3)cc2)[nH]1)c1ccccc1 [cj-80, methyl ((1S)-2-((2S)-2-(5-(4′-(2-((2S)-1-((2R)-2-(diethylamino)-2-phenylacetyl)-2-pyrrolidinyl)-1H-imidazol-5-yl)-4-biphenylyl)-1H-imidazol-2-yl)-1-pyrrolidinyl)-2-oxo-1-(1,3-thiazol-4-ylmethyl)ethyl)carbamate] | 1 to 999 |
